This passage reports IC50 results from PMC7203344, “Sirtuin 1 Inhibiting Thiocyanates (S1th)—A New Class of Isotype Selective Inhibitors of NAD^+ Dependent Lysine Deacetylases” (Frontiers in Oncology, 2020).

In general, IC50 refers to the concentration needed to halve the response being measured. Higher therefore signals a need for much substance.

For the experiment, the target named is T1, Sirt1 (Homo sapiens, UniProt Q96EB6).
T1 construct: made in house; host or cells: E. coli BL21 Star (DE3)
T1 sequence (Q96EB6 134-747): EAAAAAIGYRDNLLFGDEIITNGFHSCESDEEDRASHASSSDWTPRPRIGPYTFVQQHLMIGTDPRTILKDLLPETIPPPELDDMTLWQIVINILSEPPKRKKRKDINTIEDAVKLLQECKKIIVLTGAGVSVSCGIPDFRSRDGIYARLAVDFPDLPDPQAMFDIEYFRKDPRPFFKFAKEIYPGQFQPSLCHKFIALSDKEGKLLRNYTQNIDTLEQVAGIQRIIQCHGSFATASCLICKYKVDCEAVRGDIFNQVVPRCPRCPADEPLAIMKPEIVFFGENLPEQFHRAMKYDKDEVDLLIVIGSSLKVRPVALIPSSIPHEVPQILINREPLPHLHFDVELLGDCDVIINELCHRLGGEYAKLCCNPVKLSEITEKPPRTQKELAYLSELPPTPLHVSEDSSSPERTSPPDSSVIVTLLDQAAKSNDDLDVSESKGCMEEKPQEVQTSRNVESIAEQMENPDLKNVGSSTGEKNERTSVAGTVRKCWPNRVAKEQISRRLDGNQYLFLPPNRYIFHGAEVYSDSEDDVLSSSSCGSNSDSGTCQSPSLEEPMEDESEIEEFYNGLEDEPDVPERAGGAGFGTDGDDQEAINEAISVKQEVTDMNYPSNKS
Briefly: Homogeneous ZMAL-based fluorescence assay, Sirt1. The class given is biochemical. Conditions: 4th round. On the procedure: Recombinant human Sirt5_37−310 was purchased readily in Tris Buffer [25 mM Tris, 100 mM NaCl, 5 mM DTT, 10% glycerol (v/v)] from Enzo Life Sciences (NY, USA). Human Sirt3_118−395 was expressed and purified as described previously ([54]). For expression of human Sirt1_134−747 and Sirt2_56−356 chemically competent cells of E. coli BL21 Star (DE3) were transformed with the expression vectors pET30S-hSirt1_134−747 or pET30S-hSirt2_56−356. Bacteria were grown at 37°C in 2×YT medium supplemented with 50 μg·mL^−1 of kanamycin to an OD600 of 0.6. Then isopropyl-β-D-1-thiogalactopyranoside (IPTG) was added to a final concentration of 1 mM to induce gene expression. After further cultivation at 20°C for 12 h, the cells were harvested by centrifugation for 15 min at 5,000 g. The cells were resuspended in lysis buffer [100 mM Tris/HCl buffer at pH 8.0, 150 mM NaCl and 10% (v/v) glycerol] and disrupted by ultrasonication (Branson Digital Sonifier 250) at 70% amplitude for 10 min (3 s working, 10 s pause). The crude extract was cleared by centrifugation at 100,000 g for 1 h, and the supernatant was loaded onto a Strep-Tactin Superflow cartridge (5 ml bed volume, IBA Lifescience, Germany). Target proteins were eluted with lysis buffer containing 5 mM D-Desthiobiotin (IBA Lifescience, Germany) and further separated by size-exclusion chromatography (Superdex S200 26/60, GE Healthcare, IL, USA) equilibrated in Tris/HCl buffer (20 mM, 150 mM NaCl, pH 8.0). Pure protein was concentrated by ultrafiltration, flash-frozen in liquid nitrogen and stored at −80°C until further use. Identity as well as purity were verified by SDS-PAGE ([55]) and protein concentration was determined by the bicinchoninic acid (BCA) method, using bovine serum albumin (BSA) as a standard ([56]). Deacetylase activity was confirmed to be NAD^+-dependent and could be inhibited with the physiological sirtuin inhibitor nicotinamide.
All compounds were tested in the trypsin-coupled high-throughput ZMAL-assay in black 96-well plates (OptiPlateTM−96F, black, 96 well, Pinch bar design, PerkinElmer, USA), using ZMAL (Z-Lys(acetyl)-AMC) as a substrate ([57]). Sirt1_134−747, Sirt2_56−356, and Sirt3_118−395 were mixed with 5 μL substrate (10.5 μM final assay concentration, diluted from a […] stock in DMSO) and 3 μL Inhibitor in DMSO at various concentrations or DMSO as a control [final DMSO concentration 5% (v/v)]. The mixture was supplemented with assay buffer (50 mM Tris/HCl, 137 mM NaCl, 2.7 mM KCl, 1 mM MgCL2, pH 8.0) to a total volume of 55 μL. Enzyme concentration was adjusted to get a final conversion of 20–30%. Addition of 5 μL NAD^+ (6 mM in assay buffer, final assay concentration of 500 μM) initiated the catalytic reaction and the plates were incubated at 37°C for 4 h with agitation at 140 rpm. The catalytic reaction was stopped by addition of 60 μL stop solution [50 mM Tris, 100 mM NaCl, 6.7% (V/V) DMSO, 5.5 U/μL trypsin, 8 μM nicotinamide, pH 8.0]. The plate was again incubated at 37°C and 140 rpm for 20 min to release free AMC from the deacetylated substrate by trypsin digestion. Afterwards, fluorescence intensity was measured in a microplate reader (λEx = 390 nm, λEm = 460 nm, BMG POLARstar Optima, BMG Labtech, Germany). An enzyme-free blank control and a 100% conversion control containing AMC instead of ZMAL were measured in addition. Inhibition was calculated in % in relation to a DMSO control after blank signal subtraction and IC50 values were determined using a non-linear regression to fit the dose-response curve with OriginPro 9G (OriginLab, USA). Pre-tests as well as IC50 determination was carried out at least twice in duplicates.
Consider `COc1ccc(SC#N)cc1OCC(=O)N(CCC#N)CCC#N` [S1th 12], for which the IC50 was found to be 5.9 ± 1.4 µM. Next, `N#CSc1cccc(NC(=O)[C@H]2CC=CC[C@H]2C(=O)O)c1` [S1th 10]: 23 ± 6 µM; `CCCCNC(=O)Nc1cccc(SC#N)c1` [S1th 11]: 6.3 ± 0.8 µM; `N#CSc1cc(SC#N)c(N)nc1N` [PR-619, reference compound]: 2.7 ± 0.2 µM. In turn, `N#CSc1cccc(NS(=O)(=O)c2ccc3c(c2)OCCO3)c1` [S1th 13] yielded an IC50 of 5.2 ± 1 µM. Compared with the last compound, the IC50 is about 1.9-fold higher.
